Results taken from patent US4190665A, “Substituted arylaliphatic acids” (Lipha, Lyonnaise Industrielle Pharmaceutique, priority 1976, dated 1980).

Legend:
[1] = test system: edema triggered by injecting a carrageenin suspension into the sole of the foot of the rat; assay: carrageenin-induced edema test (Winter and Risley), anti-inflammatory effect; format: in vivo; conditions: po, orally, read-out: AD30 orally (active dose 30, inhibiting edema development by 30%)
Experimental: (§1) The anti-inflammatory effect of the new drugs was determined in two tests.
(a) In the carrageenin-induced edema test according to Winter, C. A. and Risley, E. A. (Proc. Soc. Exp. Biol. Med. 1962, 111, 544-547) the protection conferred by the drug administered orally to the rat against an edema triggered by injecting a carrageenin suspension into the sole of the foot of the rat was investigated. The table below gives the "active dose 30" (inhibiting edema development by 30%) of both compounds.

[2] = test system: painful contractures, caused by intraperitoneal injection of a dilute acetic acid solution; assay: analgesic activity in the mouse by the method of Koster (acetic acid contractures); format: in vivo; conditions: po, orally, read-out: Active Dose 50 (diminished painful contractures by 50%)
Description: The analgesic activity can be determined in the mouse by the method of Koster, R., Anderson, M., Debeer, E. J., Federation Proc., 1959, 18, 412. A determination was made of the active dose 50 of the drug which, administered orally, diminished painful contractures, caused by intraperitoneal injection of a dilute acetic acid solution, by 50%.

[3] = LD50, orally, mouse (acute toxicity); conditions: in vivo, po
[4] = test system: erythema (produced by exposure to ultraviolet radiation) of the shaved back of the guinea pig; assay: UV erythema test on the guinea pig (Winder et al.), anti-inflammatory effect; format: in vivo, albino guinea pig; conditions: Cavia porcellus, po, orally, read-out: Active Dose 50 (decreased erythema by 50%)
Experimental: as §1
(b) In the UV erythema test on the guinea pig (Winder, C. V., Wax, J., Burr, V., Been, M., Rosiere, C. E., Arch. Int. Pharmacodyn., 116, 261, 1958) the protective activity against precocious inflammation in the albino guinea pig was investigated. A determination was made of the active dose 50 which, administered orally to the animal, decreased erythema (produced by exposure to ultraviolet radiation) of the shaved back of the guinea pig by 50%.

Compound | ED30 [1] | ED50 [2] | LD50 [3] | ED50 [4]
CC(C(=O)O)c1ccc(-n2cccc2)c(N)c1 (centres unmarked) [Compound B, 2-(3'-amino-4'-[1"-pyrrolyl]phenyl) propionic acid] | 12 mg/kg | 19 mg/kg | 3000 mg/kg | 4.7 mg/kg
CC(C(=O)O)c1ccc(-n2cccc2)c([N+](=O)[O-])c1 (centres unmarked) [Compound A, 2-(3'-nitro-4'-[1"-pyrrolyl]phenyl) propionic acid] | 12 mg/kg | 50 mg/kg | 3200 mg/kg | 18.4 mg/kg
